# Measured values from ChEMBL document CHEMBL1134860, “Novel thiophene derivatives for the treatment of benign prostatic hyperplasia” (Bioorg Med Chem Lett, 2002).
# Tests used:
# [1] = target: T1, Alpha-1D adrenergic receptor (Homo sapiens, UniProt P25100); test: Displacement of [125I]-HEAT from human Alpha-1D adrenergic receptor expressed in COS cells membranes; type: cell membranes
# T1 sequence (P25100 whole entry): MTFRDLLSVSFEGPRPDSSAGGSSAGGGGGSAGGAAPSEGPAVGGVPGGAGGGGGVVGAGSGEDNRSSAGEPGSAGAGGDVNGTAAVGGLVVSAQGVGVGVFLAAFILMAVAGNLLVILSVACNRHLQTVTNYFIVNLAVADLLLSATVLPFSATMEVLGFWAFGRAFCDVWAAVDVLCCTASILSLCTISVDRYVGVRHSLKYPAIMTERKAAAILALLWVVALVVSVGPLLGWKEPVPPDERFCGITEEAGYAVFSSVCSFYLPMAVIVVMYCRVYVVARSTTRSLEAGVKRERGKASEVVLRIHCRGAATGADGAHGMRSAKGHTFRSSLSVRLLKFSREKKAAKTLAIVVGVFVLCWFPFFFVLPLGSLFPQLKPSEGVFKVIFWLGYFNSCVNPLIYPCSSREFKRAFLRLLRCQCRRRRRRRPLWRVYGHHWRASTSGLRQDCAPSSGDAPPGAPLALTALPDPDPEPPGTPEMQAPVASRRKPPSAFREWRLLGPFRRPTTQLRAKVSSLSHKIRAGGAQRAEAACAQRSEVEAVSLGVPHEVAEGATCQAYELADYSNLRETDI
# [2] = target: T2, Alpha-1B adrenergic receptor (Homo sapiens, UniProt P35368); test: Displacement of [125I]HEAT from COS cells membranes expressing human Alpha-1B adrenergic receptor; type: cell membranes
# T2 sequence (P35368 whole entry): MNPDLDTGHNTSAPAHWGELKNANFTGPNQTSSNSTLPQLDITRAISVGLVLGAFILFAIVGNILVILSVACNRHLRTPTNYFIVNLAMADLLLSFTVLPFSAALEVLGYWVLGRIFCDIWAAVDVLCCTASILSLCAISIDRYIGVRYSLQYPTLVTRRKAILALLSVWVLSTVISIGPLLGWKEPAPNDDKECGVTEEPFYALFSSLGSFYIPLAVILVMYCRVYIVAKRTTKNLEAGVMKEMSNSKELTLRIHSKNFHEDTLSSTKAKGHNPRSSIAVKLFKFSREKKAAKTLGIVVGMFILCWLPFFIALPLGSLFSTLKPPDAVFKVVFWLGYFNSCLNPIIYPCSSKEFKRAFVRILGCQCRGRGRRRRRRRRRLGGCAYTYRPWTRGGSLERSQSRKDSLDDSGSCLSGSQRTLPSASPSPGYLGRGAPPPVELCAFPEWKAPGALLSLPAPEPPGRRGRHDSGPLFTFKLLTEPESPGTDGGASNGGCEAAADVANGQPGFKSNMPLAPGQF
# [3] = target: T3, Alpha-1A adrenergic receptor (Homo sapiens, UniProt P35348); test: Displacement of [125I]HEAT from COS cell membranes expressing human Alpha-1A adrenergic receptor
# T3 sequence (P35348 whole entry): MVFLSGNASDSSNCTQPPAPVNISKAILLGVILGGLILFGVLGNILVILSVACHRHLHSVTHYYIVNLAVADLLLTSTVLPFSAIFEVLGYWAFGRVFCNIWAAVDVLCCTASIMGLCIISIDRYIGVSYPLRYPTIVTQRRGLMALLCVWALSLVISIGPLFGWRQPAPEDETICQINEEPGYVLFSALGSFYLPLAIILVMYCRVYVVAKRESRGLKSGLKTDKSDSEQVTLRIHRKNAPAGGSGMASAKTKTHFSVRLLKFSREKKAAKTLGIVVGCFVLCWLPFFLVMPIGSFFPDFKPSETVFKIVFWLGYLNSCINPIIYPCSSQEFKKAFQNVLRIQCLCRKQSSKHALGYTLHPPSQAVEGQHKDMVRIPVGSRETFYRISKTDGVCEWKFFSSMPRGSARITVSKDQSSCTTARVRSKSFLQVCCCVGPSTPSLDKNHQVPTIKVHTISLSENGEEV
# [4] = target: Adrenergic receptors; alpha-1 A & B (Homo sapiens) (UniProt P35348+P35368); test: Relative binding to alpha-1b and alpha-1a receptors (ratio of Ki); type: protein assay
# [5] = target: Alpha adrenergic receptor (1a and 1d) (Homo sapiens) (UniProt P35348+P25100); test: Relative binding to alpha1d and alpha-1a receptors (ratio of Ki); type: protein assay
SMILES,Ki [1],Ki [2],Ki [3],Ratio [4],Ratio [5]
COc1ccccc1N1CCN(Cc2ccc(Br)s2)CC1,92 nM,757 nM,128 nM,6,0.7
COc1ccccc1N1CCN(Cc2ccc(CN3CCCCCC3=O)s2)CC1,13 nM,> 5000 nM,18 nM,> 278,0.7
COC(=O)[C@@H]1CCCN1Cc1ccc(CN2CCN(c3ccccc3OC)CC2)s1,15 nM,592 nM,12 nM,49,1.3
COc1ccccc1N1CCN(Cc2ccc(C=O)s2)CC1,262 nM,1880 nM,578 nM,3.2,0.4
CC(C)Oc1ccccc1N1CCN(Cc2cc(CN3CCCCC3=O)cs2)CC1,92 nM,384 nM,0.5 nM,769,184
CC(C)Oc1ccccc1N1CCN(Cc2cc(CO)cs2)CC1,339 nM,> 5000 nM,331 nM,> 15,1
COc1ccccc1N1CCN(Cc2ccc(CN3CCCCC3=O)s2)CC1,12 nM,> 5000 nM,14 nM,> 357,0.9

# The remaining compounds from weak to strong by Ki [1], led by results:
Ki [1],Ki [2],Ki [3],Ratio [4],Ratio [5],SMILES
138 nM,1060 nM,202 nM,5.3,0.7,COc1ccccc1N1CCN(Cc2ccc(CO)s2)CC1
130 nM,2570 nM,419 nM,6.1,0.3,COc1ccccc1N1CCN(Cc2ccc(CN3CCCCC3O)s2)CC1 (stereo not given)
47 nM,615 nM,1.8 nM,342,26,CC(C)Oc1ccccc1N1CCN(Cc2cc(CN3CCCCCC3=O)cs2)CC1
25 nM,259 nM,0.2 nM,1520,147,CC(C)Oc1ccccc1N1CCN(Cc2cc(CN3CCCC3=O)cs2)CC1
23 nM,> 5000 nM,40 nM,> 125,0.6,COc1ccccc1N1CCN(Cc2ccc(CN3CCCC3=O)s2)CC1
18 nM,413 nM,0.3 nM,1250,54,CC(C)Oc1ccccc1N1CCN(Cc2ccc(CN3CCCCC3=O)s2)CC1
